Several values for one entry are separate records, joined by “and”; a condition that tells them apart may be missing. Equal entries are not always repeated.
Target: T1, Thyrotropin-releasing hormone receptor (Mus musculus) (UniProt P21761)
T1 sequence (whole entry): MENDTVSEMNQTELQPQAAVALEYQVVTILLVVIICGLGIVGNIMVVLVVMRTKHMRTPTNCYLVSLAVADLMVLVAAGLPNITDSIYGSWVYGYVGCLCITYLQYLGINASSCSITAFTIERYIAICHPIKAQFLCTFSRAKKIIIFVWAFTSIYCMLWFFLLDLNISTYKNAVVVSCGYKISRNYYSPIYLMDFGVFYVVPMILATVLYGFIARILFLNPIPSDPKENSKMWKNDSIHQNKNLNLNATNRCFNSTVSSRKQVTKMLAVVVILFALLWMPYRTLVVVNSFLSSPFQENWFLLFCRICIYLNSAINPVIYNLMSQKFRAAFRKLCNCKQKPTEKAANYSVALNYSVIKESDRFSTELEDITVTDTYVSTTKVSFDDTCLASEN
Assay: Displacement of [3H]MeTRH from Thyrotropin releasing hormone receptor 1 was measured; expressed as %

| SMILES | Competition |
| --- | --- |
| CNC(=O)c1cc2ccccc2c(-c2ccccc2Cl)n1 | 33% and 29% |
| CCCCN(C)C(=O)c1cc2ccccc2c(-c2ccccc2Cl)n1 | 84% and 92% |
| CCC(C)N(C)C(=O)c1cc2ccccc2c(-c2ccccc2Cl)n1 (stereo in doubt; 10) | 73% and 90% |
| CCC(C)NC(=O)c1cc2ccccc2c(-c2cccc([N+](=O)[O-])c2)n1 (configuration not stated) | 21% and 31% |
| CCCNC(=O)c1cc2ccccc2c(-c2ccccc2Cl)n1 | 78% and 91% |
| CCC(C)N(C)C(=O)c1cc2ccccc2c(-c2ccccc2Cl)n1 (stereo in doubt) | 44% and 56% |
| CCC(C)NC(=O)c1cc2ccccc2c(-c2ccc([N+](=O)[O-])cc2)n1 (configuration not stated) | 16% and 40% |
